Assay results reported in the NIST ThermoML archive (doi:10.1021/je400839x).

Assay: xn = mol fraction of the nth substance listed
Settings: for viscosity / speed of sound / mass density: 101 kPa, Liquid; for viscosity: Concentric cylinders viscometry; for speed of sound: Pulse-echo method; for mass density: Vibrating tube method; for surface tension liquid-gas: 294 K, Pendant drop shape

CC(CC(C)(C)C)CC(C)(C)C [2,2,4,6,6-pentamethylheptane] + CCCCCCCCCCCCCCCC
Settings | mass density [kg/m3] | speed of sound [m/s] | viscosity [mPa·s]
293.15 K, x1 = 0.1261 | 770.6 | 1342.7 | 3.1
293.15 K, x1 = 0.2449 | 767.8 | 1327.4 | 2.79
293.15 K, x1 = 0.4087 | 763.6 | 1304.9 | 2.41
293.15 K, x1 = 0.562 | 759.5 | 1282.2 | 2.09
293.15 K, x1 = 0.7036 | 755.3 | 1259.1 | 1.8
293.15 K, x1 = 0.8368 | 751 | 1235.8 | 1.56
293.15 K, x1 = 1 | 745.5 | 1204 | 1.29
303.15 K, x1 = 0.1261 | 763.8 | 1305.2 | 2.47
303.15 K, x1 = 0.2449 | 760.9 | 1290 | 2.25
303.15 K, x1 = 0.4087 | 756.8 | 1267.4 | 1.97
303.15 K, x1 = 0.562 | 752.6 | 1244.5 | 1.72
303.15 K, x1 = 0.7036 | 748.3 | 1221.1 | 1.5
303.15 K, x1 = 0.8368 | 743.9 | 1197.4 | 1.31
303.15 K, x1 = 1 | 738.2 | 1164.9 | 1.1
313.15 K, x1 = 0.1261 | 756.8 | 1268.4 | 2.03
313.15 K, x1 = 0.2449 | 754 | 1253.3 | 1.86
313.15 K, x1 = 0.4087 | 749.8 | 1230.7 | 1.64
313.15 K, x1 = 0.562 | 745.6 | 1207.5 | 1.44
313.15 K, x1 = 0.7036 | 741.3 | 1183.8 | 1.27
313.15 K, x1 = 0.8368 | 736.8 | 1159.8 | 1.11
313.15 K, x1 = 1 | 730.9 | 1126.7 | 0.941
323.15 K, x1 = 0.1261 | 749.9 | 1232.5 | 1.68
323.15 K, x1 = 0.2449 | 747.1 | 1217.2 | 1.55
323.15 K, x1 = 0.4087 | 742.9 | 1194.6 | 1.38
323.15 K, x1 = 0.562 | 738.6 | 1171.2 | 1.23
323.15 K, x1 = 0.7036 | 734.2 | 1147.2 | 1.09
323.15 K, x1 = 0.8368 | 729.6 | 1122.9 | 0.966
323.15 K, x1 = 1 | 723.5 | 1089.3 | 0.827
333.15 K, x1 = 0.1261 | 742.9 | – | 1.42
333.15 K, x1 = 0.2449 | 740.1 | – | 1.32
333.15 K, x1 = 0.4087 | 735.8 | – | 1.18
333.15 K, x1 = 0.562 | 731.5 | – | 1.06
333.15 K, x1 = 0.7036 | 727 | – | 0.944
333.15 K, x1 = 0.8368 | 722.3 | – | 0.843
333.15 K, x1 = 1 | 716.1 | – | 0.726
343.15 K, x1 = 0.1261 | 735.9 | – | 1.22
343.15 K, x1 = 0.2449 | 733 | – | 1.14
343.15 K, x1 = 0.4087 | 728.7 | – | 1.02
343.15 K, x1 = 0.562 | 724.4 | – | 0.922
343.15 K, x1 = 0.7036 | 719.7 | – | 0.827
343.15 K, x1 = 0.8368 | 714.9 | – | 0.742
343.15 K, x1 = 1 | 708.6 | – | 0.643
353.15 K, x1 = 0.1261 | 728.8 | – | 1.06
353.15 K, x1 = 0.2449 | 725.9 | – | 0.988
353.15 K, x1 = 0.4087 | 721.5 | – | 0.894
353.15 K, x1 = 0.562 | 717.1 | – | 0.81
353.15 K, x1 = 0.7036 | 712.3 | – | 0.73
353.15 K, x1 = 0.8368 | 707.5 | – | 0.658
353.15 K, x1 = 1 | 700.9 | – | 0.573
363.15 K, x1 = 0.1261 | 721.7 | – | 0.928
363.15 K, x1 = 0.2449 | 718.8 | – | 0.87
363.15 K, x1 = 0.4087 | 714.4 | – | 0.791
363.15 K, x1 = 0.562 | 709.8 | – | 0.719
363.15 K, x1 = 0.7036 | 704.9 | – | 0.651
363.15 K, x1 = 0.8368 | 700 | – | 0.589
363.15 K, x1 = 1 | 693.2 | – | 0.515
373.15 K, x1 = 0.1261 | 714.5 | – | 0.823
373.15 K, x1 = 0.2449 | 711.7 | – | 0.773
373.15 K, x1 = 0.4087 | 707.1 | – | 0.706
373.15 K, x1 = 0.562 | 702.5 | – | 0.644
373.15 K, x1 = 0.7036 | 697.5 | – | 0.585
373.15 K, x1 = 0.8368 | 692.3 | – | 0.531
373.15 K, x1 = 1 | 685.5 | – | 0.467

Settings | surface tension liquid-gas [mN/m]
x1 = 0.1261 | 25.9
x1 = 0.2449 | 25.3
x1 = 0.4087 | 24.3
x1 = 0.562 | 23.8
x1 = 0.7036 | 23.1
x1 = 0.8368 | 22.5
x1 = 1 | 21.8
